In patent US20260297042A1, “BIARYLAMIDE DERIVATIVES AND THEIR USE AS PKMYT1 INHIBITORS” (CANCER RESEARCH TECHNOLOGY LIMITED, priority 2023, published 2026):
Structures can show the parent of a compound that is named as a salt.

Columns and labels:
Human PKMYT1 = target: T1, Human PKMYT1 (Homo sapiens, UniProt Q99640); assay: PKMYT1 biochemical ADP-Glo enzymatic assay
T1 construct: Human PKMYT1 75-362 was cloned as a TEV cleavable 6xHis fusion; 6xHis (TEV cleavable) (cleaved yes); made in house; host or cells: bacterial cells
T1 sequence (Q99640 75-362): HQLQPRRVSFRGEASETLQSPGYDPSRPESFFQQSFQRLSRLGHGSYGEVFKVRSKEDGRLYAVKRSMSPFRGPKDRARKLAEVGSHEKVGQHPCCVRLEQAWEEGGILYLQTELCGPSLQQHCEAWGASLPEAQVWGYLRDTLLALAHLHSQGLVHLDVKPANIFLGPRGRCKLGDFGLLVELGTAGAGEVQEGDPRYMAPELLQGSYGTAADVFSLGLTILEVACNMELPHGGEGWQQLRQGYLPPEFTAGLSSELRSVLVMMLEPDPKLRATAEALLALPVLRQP
Protocol: Human PKMYT1 75-362 was cloned as a TEV cleavable 6xHis fusion in bacterial cells. After purification on a Ni++HiTrap Chelating HP column, the His-tag was cleaved using TEV protease. Cleaved PKMYT1 was further purified on a Superdex 200 16/600 sizing column. The fractions containing PKMYT1 were pooled and concentrated using an ultrafiltration centrifugal protein concentrator. The purified protein was aliquoted, flash frozen in liquid nitrogen, and stored at −80° C.
PKMYT1 biochemical assay: Inhibition of PKMYT1 was assessed using the ADP-Glo™ Max Detection System from Promega. This assay detects the production of ADP from ATP by PKMYT1 via a two-step process ultimately involving the conversion of ADP to ATP with the latter converted to light in a coupled reaction with luciferase/luciferin. Inhibition of PKMYT1 by small molecule inhibitors results in a retardation of luminescence above background. The intrinsic ATPase activity of PKMYT1 was assessed according to the following protocol. Compounds were dosed into Corning white low volume 384 well assay plates using an Echo acoustic dispenser to generate 10-point curves spanning a 3-fold dilution series. DMSO (no inhibitor) control wells were prepared to benchmark the maximum and minimum signals in the presence and absence of PKMYT1, respectively. The PKMYT1 kinase domain was purified in-house, as described above, and added to the wells at a final concentration of 15 nM in a buffer of 50 mM HEPES (pH 7.5), 10 mM MgCl2, 1 mM EGTA, 0.01% Brij-35, 1% DMSO. 500 µM ATP was added to start the reaction with the final assay volume being 4 μl. The plate was then incubated for 60 minutes at 26° C. before the addition of 4 μl of ADP-Glo Reagent to stop the reaction and deplete the unconsumed ATP. Following a further 60 minute incubation the assay signal was developed by the addition of 8 μl ADP-Glo Max Detection Reagent. After 60 minutes the luminescence signal was read on a PHERAStar FS microplate reader (BMG Labtech).
(§1) Data analysis: Data was captured and analysed within the Dotmatics Studies software module where dose response curves were generated and IC50 values determined. Acceptance and verification of data followed strict in-house business rules which are summarised as follows. […] Technical and biological replicates of each compound are routinely tested and replicate IC50 values must fall within 3-fold of each other with dose response curves showing ‘goodness of fit’ r2 values >0.9. Failure to meet any of these defined criteria result in rejection of data.

WEE1 = target: T2, WEE1 (Homo sapiens, UniProt P30291); assay: Selectivity versus WEE1 assay (ADP-Glo enzymatic assay); type: biochemical; settings: for IC50: ADP-Glo; for PKMYT1 vs. WEE1 selectivity: fold difference in selectivity for PKMYT1 over WEE1
T2 construct: purchased Thermo Fisher PR7373A
Protocol: Selectivity versus WEE1 assay: Selectivity was established using the same format as outlined for PKMYT1. After dosing of compounds via the Echo acoustic dispenser—as described above—WEE1 (Thermo Fisher PR7373A) was added to each well at a final concentration of 15 nM in a buffer of 50 mM HEPES (pH 7.5), 10 mM MgCl2, 1 mM EGTA, 0.01% Brij-35, 1% DMSO. 30 µM ATP was added to start the reaction with the final assay volume being 4 μl. The plate was then incubated for 60 minutes at 26° C. before the addition of 4 μl of ADP-Glo Reagent. Following a further 60 minute incubation the assay signal was developed by the addition of 8 μl ADP-Glo Detection Reagent. After 60 minutes the luminescence signal was read on a PHERAStar FS microplate reader (BMG Labtech).
as §1

[1] = ADP-Glo, 15 nM PKMYT1 kinase domain, 500 µM ATP, 60 minutes at 26° C., banded
[2] = 15 nM WEE1, 60 minutes at 26° C., banded
[3] = banded, ">N" = at least in this band but could be higher
[4] = PKMYT1 kinase domain 15 nM, ADP-Glo, banded values

T2 sequence (P30291 whole entry): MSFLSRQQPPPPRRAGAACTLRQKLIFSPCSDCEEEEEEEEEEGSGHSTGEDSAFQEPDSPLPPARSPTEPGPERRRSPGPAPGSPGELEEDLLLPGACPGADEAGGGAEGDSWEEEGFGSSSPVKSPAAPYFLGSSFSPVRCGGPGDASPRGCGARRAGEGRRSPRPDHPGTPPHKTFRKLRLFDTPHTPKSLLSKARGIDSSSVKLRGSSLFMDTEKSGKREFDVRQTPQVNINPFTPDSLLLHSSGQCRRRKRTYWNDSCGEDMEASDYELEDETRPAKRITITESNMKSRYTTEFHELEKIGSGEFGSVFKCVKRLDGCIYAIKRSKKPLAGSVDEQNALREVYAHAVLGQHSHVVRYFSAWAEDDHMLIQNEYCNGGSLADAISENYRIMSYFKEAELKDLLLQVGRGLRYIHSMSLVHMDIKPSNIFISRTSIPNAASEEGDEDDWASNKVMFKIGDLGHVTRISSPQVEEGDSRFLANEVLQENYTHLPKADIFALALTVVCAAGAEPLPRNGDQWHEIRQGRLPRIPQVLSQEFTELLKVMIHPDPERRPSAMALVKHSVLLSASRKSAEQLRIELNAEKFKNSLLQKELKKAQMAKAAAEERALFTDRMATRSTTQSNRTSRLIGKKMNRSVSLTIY

Structure (SMILES)	IC50 (Human PKMYT1; [1]) [µM]	IC50 (WEE1; [2]) [µM]	PKMYT1 vs. WEE1 selectivity (WEE1; [3])	also measured
Cc1ccc(O)c(C)c1NC(=O)c1cnc(Nc2ccn(C3CCCCC3)n2)s1 [BAA-015, 2-[(1-cyclohexylpyrazol-3-yl)amino]-N-(3-hydroxy-2,6-dimethyl-phenyl)thiazole-5-carboxamide]	< 0.05	1 to 11	X (100-<1000 fold)	–
Cc1ccc(O)c(C)c1NC(=O)c1cnc(N)s1 [BAA-001, 2-Amino-N-(3-hydroxy-2,6-dimethyl-phenyl)thiazole-5-carboxamide]	0.05 to 1	> 11	X (100-<1000 fold)	IC50 (Human PKMYT1; PKMYT1 biochemical ADP-Glo enzymatic assay, Comparison Data 1): 0.327 µM; improvement in PKMYT1 IC50 as compared to REF-001 (Human PKMYT1; vs REF-001): 163 fold; improvement in PKMYT1 IC50 as compared to REF-002 (Human PKMYT1; vs REF-002): 82 fold
Cc1ccc(O)c(C)c1NC(=O)c1cnc(Nc2cccc3c2OCC3)s1 [BAA-530, 2-((2,3-dihydrobenzofuran-7-yl)amino)-N-(3-hydroxy-2,6-dimethylphenyl)thiazole-5-carboxamide. TFA salt]	–	–	–	IC50 (Human PKMYT1; [4]): 0.05 to 1 µM; IC50 (WEE1; WEE1 15 nM, banded values): > 11 µM; PKMYT1 vs. WEE1 selectivity (WEE1; banded): X (100-<1000 fold)
Cc1ccc(O)c(C)c1NC(=O)c1cnc(NCc2ccccc2)s1 [BAA-344, 2-(benzylamino)-N-(3-hydroxy-2,6-dimethylphenyl) thiazole-5-carboxamide]	0.05 to 1	> 11	Y (1000-5000 fold)	–
Cc1ccc(O)c(C)c1NC(=O)c1cnc(Nc2ccn(CC(F)(F)F)n2)s1 [BAA-019, N-(3-hydroxy-2,6-dimethyl-phenyl)-2-[[1-(2,2,2-trifluoroethyl)pyrazol-3-yl]amino]thiazole-5-carboxamide]	0.05 to 1	> 11	X (100-<1000 fold)	–
Cc1ccc(O)c(C)c1NC(=O)c1cnc(Nc2cccc(S(C)(=O)=O)c2)s1 [BAA-276, N-(3-hydroxy-2,6-dimethylphenyl)-2-((3-(methylsulfonyl)phenyl)amino)thiazole-5-carboxamide]	< 0.05	> 11	Y (1000-5000 fold)	–
Cc1ccc(O)c(C)c1NC(=O)c1cnc(Nc2ccn([C@@H]3CCN(C(=O)CC4CCCCC4)C3)n2)s1 [BAA-097]	0.05 to 1	> 11	>X (100-<1000 fold)	–
CCCN1CC[C@@H](n2ccc(Nc3ncc(C(=O)Nc4c(C)ccc(O)c4C)s3)n2)C1 [BAA-114, N-(3-Hydroxy-2,6-dimethyl-phenyl)-2-[[1-[(3R)-1-propylpyrrolidin-3-yl]pyrazol-3-yl]amino]thiazole-5-carboxamide]	0.05 to 1	> 11	>X (100-<1000 fold)	–
Cc1ccc(O)c(C)c1NC(=O)c1cnc(Nc2ccn(CC(=O)N[C@H](C)CO)n2)s1 [BAA-164]	< 0.05	> 11	Y (1000-5000 fold)	–
Cc1ccc(O)c(C)c1NC(=O)c1cnc(Nc2ccn([C@@H]3CCN(C(=O)CC(C)(C)C)C3)n2)s1 [BAA-081, 2-[[1-[(3R)-1-(3,3-dimethylbutanoyl)pyrrolidin-3-yl]pyrazol-3-yl]amino]-N-(3-hydroxy-2,6-dimethyl-phenyl)thiazole-5-carboxamide]	0.05 to 1	> 11	>X (100-<1000 fold)	–
Cc1ccc(O)c(C)c1NC(=O)c1cnc(Nc2ccn(CCCC(=O)O)n2)s1 [BAA-058, 4-[3-[[5-[(3-Hydroxy-2,6-dimethyl-phenyl)carbamoyl]thiazol-2-yl]amino]pyrazol-1-yl]butanoic acid]	< 0.05	> 11	X (100-<1000 fold)	–
Cc1ccc(O)c(C)c1NC(=O)c1cnc(Nc2ccn(CC(=O)N3CC[C@@H](O)C3)n2)s1 [BAA-139, N-(3-hydroxy-2,6-dimethyl-phenyl)-2-[[1-[2-[(3R)-3-hydroxypyrrolidin-1-yl]-2-oxo-ethyl]pyrazol-3-yl]amino]thiazole-5-carboxamide]	< 0.05	> 11	Y (1000-5000 fold)	–
Cc1ccc(O)c(C)c1NC(=O)c1cnc(Nc2ccn(CC(=O)N(C)C)n2)s1 [BAA-117, 2-[[1-[2-(Dimethylamino)-2-oxo-ethyl]pyrazol-3-yl]amino]-N-(3-hydroxy-2,6-dimethyl-phenyl)thiazole-5-carboxamide]	< 0.05	> 11	Y (1000-5000 fold)	–
Cc1ccc(O)c(C)c1NC(=O)c1cnc(Nc2ccn(CC(=O)NCCO)n2)s1 [BAA-147, N-(3-hydroxy-2,6-dimethyl-phenyl)-2-[[1-[2-(2-hydroxyethylamino)-2-oxo-ethyl]pyrazol-3-yl]amino]thiazole-5-carboxamide]	< 0.05	> 11	Y (1000-5000 fold)	–
Cc1ccc(O)c(C)c1NC(=O)c1cnc(Nc2nc3ccccc3o2)s1 [BAA-044, 2-(1,3-benzoxazol-2-ylamino)-N-(3-hydroxy-2,6-dimethyl-phenyl)thiazole-5-carboxamide]	0.05 to 1	> 11	>X (100-<1000 fold)	–
Cc1ccc(O)c(C)c1NC(=O)c1cnc(NC2Cc3ccccc3C2)s1 [BAA-353, 2-((2,3-dihydro-1H-inden-2-yl)amino)-N-(3-hydroxy-2,6-dimethylphenyl)thiazole-5-carboxamide]	1 to 11	> 11	W (10-<100 fold)	–
Cc1ccc(O)c(C)c1NC(=O)c1cnc(Nc2nccc3ccncc23)s1 [BAA-602, 2-((2,7-naphthyridin-1-yl)amino)-N-(3-hydroxy-2,6-dimethylphenyl)thiazole-5-carboxamide]	–	–	–	IC50 (Human PKMYT1; [4]): 0.05 to 1 µM; IC50 (WEE1; WEE1 15 nM, banded values): > 11 µM; PKMYT1 vs. WEE1 selectivity (WEE1; banded): X (100-<1000 fold)
Cc1cn(Cc2ncco2)nc1Nc1ncc(C(=O)Nc2c(C)ccc(O)c2C)s1 [BAA-366, N-(3-hydroxy-2,6-dimethylphenyl)-2-((4-methyl-1-(oxazol-2-ylmethyl)-1H-pyrazol-3-yl)amino) thiazole-5-carboxamide]	< 0.05	1 to 11	X (100-<1000 fold)	–
CCOc1ccccc1Nc1ncc(C(=O)Nc2c(C)ccc(O)c2C)s1 [BAA-539, 2-((2-ethoxyphenyl)amino)-N-(3-hydroxy-2,6-dimethylphenyl)thiazole-5-carboxamide. TFA salt]	–	–	–	IC50 (Human PKMYT1; [4]): 0.05 to 1 µM; IC50 (WEE1; WEE1 15 nM, banded values): > 11 µM; PKMYT1 vs. WEE1 selectivity (WEE1; banded): X (100-<1000 fold)
Cc1ccc(O)c(C)c1NC(=O)c1cnc(Nc2ccc(F)c(C#N)c2)s1 [BAA-282, 2-((3-cyano-4-fluorophenyl)amino)-N-(3-hydroxy-2,6-dimethylphenyl)thiazole-5-carboxamide]	1 to 11	> 11	W (10-<100 fold)	–
CCCCn1ccc(Nc2ncc(C(=O)Nc3c(C)ccc(O)c3C)s2)n1 [BAA-012, 2-[(1-butylpyrazol-3-yl)amino]-N-(3-hydroxy-2,6-dimethyl-phenyl)thiazole-5-carboxamide]	0.05 to 1	1 to 11	W (10-<100 fold)	–
